For series [1], the target named is T1, human Kv3.1 channels (hKv3.1) (Homo sapiens, UniProt P48547).
T1 construct: expressed in transfected cells; host or cells: CHO/Gam/E1A-clone22 (CGE22) cells, CHO-K1-derived, transduced with BacMam pFBM/human Kv3.1
T1 sequence (P48547 1-511): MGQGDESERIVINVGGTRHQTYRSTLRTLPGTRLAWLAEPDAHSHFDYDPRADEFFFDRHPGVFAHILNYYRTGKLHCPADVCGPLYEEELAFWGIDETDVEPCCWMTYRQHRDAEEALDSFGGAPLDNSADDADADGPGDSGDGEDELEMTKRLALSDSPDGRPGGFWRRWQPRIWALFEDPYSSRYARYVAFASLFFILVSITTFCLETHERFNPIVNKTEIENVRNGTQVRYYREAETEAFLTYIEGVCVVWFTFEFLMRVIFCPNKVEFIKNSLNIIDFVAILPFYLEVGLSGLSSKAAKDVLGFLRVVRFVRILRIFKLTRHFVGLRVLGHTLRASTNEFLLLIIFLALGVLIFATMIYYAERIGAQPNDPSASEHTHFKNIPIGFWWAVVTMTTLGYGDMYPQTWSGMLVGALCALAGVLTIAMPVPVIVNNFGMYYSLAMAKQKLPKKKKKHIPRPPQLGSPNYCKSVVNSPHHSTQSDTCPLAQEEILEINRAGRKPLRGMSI
Briefly: IonWorks Quattro whole-cell current potentiation assay, hKv3.1 (Biological Example 1). The class given is cell-based. As to conditions: recombinant cell assay, -15 mV voltage step; positive modulator = at least 20% of effect of 50 microM reference compound. An excerpt: (§1) The ability of the compound of the invention to modulate the voltage-gated potassium channel subtypes Kv3.2 or Kv3.1 may be determined using the following assay. Analogous methods may be used to investigate the ability of the compound of the invention to modulate other channel subtypes, including Kv3.3 and Kv3.4.
To assess compound effects on human Kv3.1 channels (hKv3.1), CHO/Gam/E1A-clone22 alias CGE22 cells were transduced using a hKv3.1 BacMam reagent. This cell line was designed to be an improved CHO-K1-based host for enhanced recombinant protein expression as compared to wild type CHO-K1.
The cell line was generated following the transduction of CHO-K1 cells with a BacMam virus expressing the Adenovirus-Gam1 protein and selection with Geneticin-G418, to generate a stable cell line, CHO/Gam-A3. […]
(§2) Experiments were conducted at room temperature using IonWorks Quattro™ planar array electrophysiology technology (Molecular Devices Corp.) with PatchPlate™ PPC. […] Planar electrode hole resistances(Rp) were determined by applying a 10 mV voltage step across each well. […] Test pulses protocol may be performed in the absence (pre-read) and presence (post-read) of the test compound. Pre- and post-reads may be separated by the compound addition followed by a 3 minute incubation. […]
(In patch-clamp work, channel activity is measured electrically.)

Series [2] has as its target T2, human Kv3.2 channels (hKv3.2) (Homo sapiens, UniProt Q96PR1).
T2 construct: expressed in transfected cells
T2 sequence (Q96PR1 1-638): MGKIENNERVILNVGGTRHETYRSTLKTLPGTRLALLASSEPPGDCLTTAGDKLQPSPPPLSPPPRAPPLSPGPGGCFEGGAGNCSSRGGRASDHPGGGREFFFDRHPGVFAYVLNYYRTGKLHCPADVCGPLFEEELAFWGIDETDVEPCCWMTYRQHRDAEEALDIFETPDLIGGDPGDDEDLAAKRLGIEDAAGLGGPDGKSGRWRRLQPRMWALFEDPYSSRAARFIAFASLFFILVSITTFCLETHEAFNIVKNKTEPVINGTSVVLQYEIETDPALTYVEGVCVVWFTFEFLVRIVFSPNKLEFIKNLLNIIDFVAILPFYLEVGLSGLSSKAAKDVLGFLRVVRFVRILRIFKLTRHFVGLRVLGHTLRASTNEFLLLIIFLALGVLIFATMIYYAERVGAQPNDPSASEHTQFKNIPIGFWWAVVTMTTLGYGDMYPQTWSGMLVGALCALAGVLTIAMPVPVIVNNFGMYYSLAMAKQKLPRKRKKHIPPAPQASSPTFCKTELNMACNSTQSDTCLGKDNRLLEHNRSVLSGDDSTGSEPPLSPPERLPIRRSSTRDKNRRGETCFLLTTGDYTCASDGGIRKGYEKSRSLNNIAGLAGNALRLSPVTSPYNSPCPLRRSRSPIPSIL
Briefly: IonWorks Quattro whole-cell current potentiation assay, hKv3.2 (Biological Example 1). The format is cell-based. As to conditions: recombinant cell assay, -15 mV voltage step; positive modulator = at least 20% of effect of 50 microM reference compound.
Source text: as §1
To assess compound effects on human Kv3.2 channels (hKv3.2), a stable cell line expressing hKv3.2 was created by transfecting Chinese Hamster Ovary (CHO)-K1 cells with a pClH5-hKv3.2 vector. Cells were cultured in DMEM/F12 medium supplemented by 10% Foetal Bovine Serum, 1× non-essential amino acids (Invitrogen) and 500 ug/ml of Hygromycin-B (Invitrogen). Cells were grown and maintained at 37° C. in a humidified environment containing 5% CO2 in air.
The day of the experiment, cells were removed from the incubator and the culture medium removed. […]
as §2

Series [3] in a line: Determination of in vivo pharmacokinetic parameters (Biological Example 3). Also noted: species or system rat. As to conditions: for Tmax: Median. As to the method:
[…] After oral administration, blood samples are collected under deep Isofluorane anesthesia from the portal vein and heart of each rat (1 rat per time point). After intravenous administration, serial blood samples are collected from the lateral tail vein of each rat. A further group of rats (n=1 per test compound) receive a single intravenous administration of the PgP transport inhibitor, Elacridar (3 mg/kg) shortly before the oral administration of the test compound at 1 mg/kg, as above. Blood and brain samples ar collected at a single timepoint of 0.5 h after dose administration for these animals. In all cases, blood samples are collected into potassium EDTA tubes.
Blood and brain samples can be assayed for test compound concentration using a method based on protein precipitation with acetonitrile followed by HPLC/MS-MS analysis with an optimized analytical method.
The concentrations of test compound in blood (expressed as ng/ml) and brain (expressed as ng/g) at the different time points following either oral or intravenous dosing are analysed using a non-compartmental pharmacokinetic model using WinNonLin Professional version 4.1. The following parameters are derived:
Intravenous dosing: Maximum concentration over time (Cmax), integrated concentration over time (AUC), clearance (Clb), volume of distribution (Vss) and half-life (t1/2).
Oral dosing: Cmax, time of maximum concentration (Tmax), AUC, bioavailability (F %), fraction absorbed (Fa %), blood to brain ratio (AUC BB), and Fold-change in AUC BB in the presence of Elacridar.

Where [4] appears, read: male, rat, whole blood, Blood, IV 1 mg/kg, Mean.
[5] abbreviates: male, rat, whole blood, Blood, PO 3 mg/kg, Mean.

For orientation: AUC(0-inf) means total exposure, with the tail of the curve extrapolated. Lower therefore signals less exposure. In general, Cmax refers to the maximum level reached in the sampled fluid or tissue. In general, clearance refers to the rate of elimination divided by the concentration. A low value points to a low capacity for elimination. As usually defined, the half-life is the time needed for the level to fall by half in the phase considered. The low end stands for rapid decline, the high end for slow decline. The Tmax is the time from dosing to the highest level.

Consider `CC[C@H]1NC(=O)N(c2ccc(Oc3ccc(C)c4c3C3(CC3)CO4)cn2)C1=O` [compound of the invention], for which the “modulation of Kv3.1 channels (whole-cell currents)” value in series [1] was “positive modulators”. Besides, the “modulation of Kv3.2 channels (whole-cell currents)” value in series [2] was “positive modulators”. In addition, the “Bioavailability (%) Using AUCinf” value in series [3] (Blood, PO 3 mg/kg vs IV 1 mg/kg) was determined as 138%. The availability result in series [3] (in vivo pharmacokinetics) was “good availability”. Besides, in series [3] (setting [4]), the AUC(0-inf) was determined as 353 ng·h/mL, the maximum concentration (Cmax) amounted to 904 ng/mL, the clearance was found to be 47.6 mL/min/kg and the half-life is 15.6 min. Besides, the Vd in series [3] (male, rat, whole blood, Blood, IV 1 mg/kg, Mean, read-out: Vdss) stood at 1 L/kg. In series [3] (male, rat, whole blood, Blood, IV 1 mg/kg), the Tmax is 4.98 min. In series [3] (setting [5]), this compound showed an AUC(0-inf) of 1440 ng·h/mL, a maximum concentration (Cmax) of 1660 ng/mL and a half-life of 24.6 min. Besides, the time of peak concentration (Tmax) in series [3] (male, rat, whole blood, Blood, PO 3 mg/kg) is 15 min.

The record behind these values is US20200039970A1, “HYDANTOIN MODULATORS OF KV3 CHANNELS” (Autifony Therapeutics Limited, priority 2016, published 2020).
